ChEMBL document CHEMBL4507279, “Data for DCP probe BI-9627” (2021)

How the values were obtained:
Conditions in all cases: Compound concentration 10.0 uM
[1] = biological target: Adenosine receptor A1 (Homo sapiens) (UniProt P30542); experiment: A1/HU Eurofins-Panlabs selectivity data (BI)
[2] = biological target: Beta-1 adrenergic receptor (Homo sapiens) (UniProt P08588); experiment: BETA1/HU Eurofins-Panlabs selectivity data (BI)
[3] = biological target: P2X purinoceptor (Oryctolagus cuniculus) (UniProt G1U3D6); experiment: P2X/RB Eurofins-Panlabs selectivity data (BI)
Sequence of P2X purinoceptor (Oryctolagus cuniculus) (G1U3D6 as listed by the source): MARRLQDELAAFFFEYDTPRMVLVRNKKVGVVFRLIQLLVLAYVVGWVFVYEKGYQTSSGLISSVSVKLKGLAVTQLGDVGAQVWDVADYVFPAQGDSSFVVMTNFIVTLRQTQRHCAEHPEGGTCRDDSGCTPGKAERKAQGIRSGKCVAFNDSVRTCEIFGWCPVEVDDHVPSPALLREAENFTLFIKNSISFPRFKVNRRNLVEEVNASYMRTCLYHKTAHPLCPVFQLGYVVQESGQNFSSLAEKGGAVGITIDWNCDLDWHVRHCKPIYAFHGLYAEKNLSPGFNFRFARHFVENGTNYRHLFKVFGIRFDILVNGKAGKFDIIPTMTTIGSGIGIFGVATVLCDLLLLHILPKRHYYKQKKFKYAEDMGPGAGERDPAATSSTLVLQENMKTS

[4] = biological target: Androgen receptor (Rattus norvegicus) (UniProt P15207); experiment: TESTOST/RA Eurofins-Panlabs selectivity data (BI)
Sequence of Androgen receptor (Rattus norvegicus) (P15207 whole entry S389L): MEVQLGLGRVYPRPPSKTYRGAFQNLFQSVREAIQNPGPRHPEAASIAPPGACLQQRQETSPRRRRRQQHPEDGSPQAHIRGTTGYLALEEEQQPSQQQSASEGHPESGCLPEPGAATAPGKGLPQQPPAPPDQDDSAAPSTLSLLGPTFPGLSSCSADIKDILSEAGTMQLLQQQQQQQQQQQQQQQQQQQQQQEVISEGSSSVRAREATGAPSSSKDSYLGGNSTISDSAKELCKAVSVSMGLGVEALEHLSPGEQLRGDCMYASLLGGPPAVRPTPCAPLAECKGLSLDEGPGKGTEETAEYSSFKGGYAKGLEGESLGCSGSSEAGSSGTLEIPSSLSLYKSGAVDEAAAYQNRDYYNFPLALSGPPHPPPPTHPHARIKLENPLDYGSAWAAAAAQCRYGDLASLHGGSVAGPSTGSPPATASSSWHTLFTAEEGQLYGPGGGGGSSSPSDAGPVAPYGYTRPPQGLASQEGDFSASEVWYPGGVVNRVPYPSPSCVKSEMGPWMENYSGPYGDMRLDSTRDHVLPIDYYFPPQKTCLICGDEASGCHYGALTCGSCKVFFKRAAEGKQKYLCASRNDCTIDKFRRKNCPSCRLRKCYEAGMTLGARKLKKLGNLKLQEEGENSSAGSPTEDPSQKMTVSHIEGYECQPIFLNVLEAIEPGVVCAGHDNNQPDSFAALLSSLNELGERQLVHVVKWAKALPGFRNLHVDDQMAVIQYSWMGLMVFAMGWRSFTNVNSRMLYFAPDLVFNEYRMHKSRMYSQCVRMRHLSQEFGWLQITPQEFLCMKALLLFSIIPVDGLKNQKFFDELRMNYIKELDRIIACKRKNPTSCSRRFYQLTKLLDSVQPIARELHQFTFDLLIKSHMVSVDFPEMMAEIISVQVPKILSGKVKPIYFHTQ

Measured: residual activity

Sequence of Adenosine receptor A1 (Homo sapiens) (P30542 whole entry): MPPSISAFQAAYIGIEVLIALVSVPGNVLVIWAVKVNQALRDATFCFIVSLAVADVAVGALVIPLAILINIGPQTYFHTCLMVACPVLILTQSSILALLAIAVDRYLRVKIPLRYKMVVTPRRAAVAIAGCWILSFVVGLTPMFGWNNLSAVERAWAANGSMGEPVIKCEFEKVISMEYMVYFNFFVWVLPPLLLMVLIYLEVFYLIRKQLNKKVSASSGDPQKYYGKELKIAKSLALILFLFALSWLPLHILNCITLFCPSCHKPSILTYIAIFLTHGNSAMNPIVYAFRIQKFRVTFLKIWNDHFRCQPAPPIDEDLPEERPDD
Sequence of Beta-1 adrenergic receptor (Homo sapiens) (P08588 whole entry, looked up): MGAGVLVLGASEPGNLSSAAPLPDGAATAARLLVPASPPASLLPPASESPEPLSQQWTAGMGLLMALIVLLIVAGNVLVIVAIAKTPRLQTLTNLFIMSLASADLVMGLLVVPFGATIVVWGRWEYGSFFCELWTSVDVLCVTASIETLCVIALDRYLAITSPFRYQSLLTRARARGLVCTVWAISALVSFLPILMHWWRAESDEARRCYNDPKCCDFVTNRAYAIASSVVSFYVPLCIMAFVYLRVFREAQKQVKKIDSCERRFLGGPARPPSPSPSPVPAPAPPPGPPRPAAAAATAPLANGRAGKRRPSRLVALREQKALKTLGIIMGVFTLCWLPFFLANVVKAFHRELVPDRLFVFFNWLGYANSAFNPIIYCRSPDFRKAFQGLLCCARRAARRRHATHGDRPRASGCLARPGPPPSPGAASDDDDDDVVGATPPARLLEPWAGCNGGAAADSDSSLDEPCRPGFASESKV

CC(=O)N1CCC(c2ccc(C(=O)NC(=N)N)cc2C(F)(F)F)CC1 [BI 9627]
inactive: [1] 58% | [2] 102% | [3] 98% | [4] 95%
